In patent US20030180957A1, “Target and method” (Sense Proteomic Limited, priority 2001, published 2003):

Biological target: Neutravidin (Gallus gallus, UniProt P02701)
Experiment: surface capture of BSA-biotin on Neutravidin coated MALDI target, competition by free biotin
Assay type: binding
Conditions: MALDI target coated with PLL-PEG-biotin and Neutravidin; MALDI mass spectrum readout
Excerpt: The specificity of the surface capture was confirmed with the following experiments. BSA-Biotin was deposited on the MALDI target without Neutravidin or without the Biotin layer. BSA-Biotin was not detected in either case. Furthermore, binding of BSA-biotin to the Neutravidin coated surface is inhibited by the presence of free biotin. The database search results for BSA-biotin are presented in the appendix A.
MALDI targets are cleaned before use with acetone, acetonitrile, double distilled water and dried under nitrogen. Each position on the MALDI target is coated with 500 nanoliter 1%PLL-PEG-2%Biotin solution dissolved in desalting buffer. The target is then placed in a humid chamber for one hour at room temperature. Unbound PLL-PEG is rinsed with […] washing buffer followed by two washes with […] washing buffer. The target surface is dried under nitrogen. The PLL-PEG coating is then overlaid with 500 nanoliter of 0.5 mg/ml Neutravidin at each position of the array, incubated for one hour at RT in a humid chamber, rinsed with washing buffer, washed twice with […] washing buffer and dried under nitrogen. THE MALDI target is now ready to be used as a highly specific affinity capture surface. […]

Neutravidin, sequence (P02701 25-152): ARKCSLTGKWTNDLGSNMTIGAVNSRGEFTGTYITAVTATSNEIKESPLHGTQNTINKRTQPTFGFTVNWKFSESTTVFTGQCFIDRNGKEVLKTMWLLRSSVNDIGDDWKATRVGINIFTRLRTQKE

## O=C(O)CCCC[C@@H]1SC[C@@H]2NC(=O)N[C@@H]21 [biotin]
  binding of BSA-biotin to the Neutravidin coated surface in the presence of free biotin: inhibited
